Data taken from article PMC11599453 (The Journal of Biological Chemistry, 2024).
Numbering of substitutions follows the chain as printed. Several values for one entry are separate records, joined by “and”; a condition that tells them apart may be missing. Identical values can stand only once. Counter-ions that a name gives are not always drawn.

How the values were obtained:
CRISP2 [1] = target: T1, CRISP2 (Homo sapiens, UniProt P16562); assay: Microscale thermophoresis (MST) binding to fluorescently labeled CRISP2
T1 sequence (P16562 22-243): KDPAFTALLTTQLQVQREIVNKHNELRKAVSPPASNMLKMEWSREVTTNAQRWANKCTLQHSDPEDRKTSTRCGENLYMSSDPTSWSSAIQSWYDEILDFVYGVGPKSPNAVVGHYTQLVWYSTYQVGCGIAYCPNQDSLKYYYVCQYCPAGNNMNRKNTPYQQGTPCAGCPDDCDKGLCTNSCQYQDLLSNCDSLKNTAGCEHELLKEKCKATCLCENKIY
Procedure: (§1) MST is based on the diffusion of a fluorescently labeled molecule along a microscopic temperature gradient. In this assay, the free protein diffuses faster than its ligand-bound form. Ligands can range from small ions to low molecular weight compounds, liposomes, and even entire viruses ([35], [39], [40], [41]).
(§2) To assess protein-protein and protein-lipid interactions, MST experiments were performed using a Monolith NT.115 (Nanotemper Technologies). […] Samples were loaded into MST standard capillaries, and MST measurements were performed using an 80% laser power setting. The dissociation constant Kd was obtained by plotting the fraction bound against the logarithm of ligand concentration, using Prism software to fit a binding curve to the data point using the "one site specific" binding option. All MST measurements were performed in triplicate, with each set of experiments including a negative control to rule out nonspecific binding.

CRISP2 [2] = target: T2, CRISP2 (Homo sapiens, UniProt P16562); assay: as above; conditions: Kd of cholesterol sulfate binding by CRISP2 in the presence of Ig1, MST; CRISP2-Ig1
T2 sequence (P16562 22-243): T1 sequence (P16562 22-243)
T2 sequence (P04217 with tags, fused parts or gaps partner): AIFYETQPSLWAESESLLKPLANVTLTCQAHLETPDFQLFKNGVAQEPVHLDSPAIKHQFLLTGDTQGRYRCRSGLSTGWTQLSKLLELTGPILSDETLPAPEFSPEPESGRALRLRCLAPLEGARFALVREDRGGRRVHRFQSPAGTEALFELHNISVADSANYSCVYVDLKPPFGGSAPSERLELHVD
Procedure: as §1, §2

CRISP2^L98G Y99P = target: T3, CRISP2^L98G Y99P (Homo sapiens, UniProt P16562, L98G/Y99P); assay: MST binding to labeled CRISP2 L98G Y99P mutant
T3 construct: made in house; host or cells: E. coli BL21
T3 sequence (P16562 22-243 L98G/Y99P): T1 sequence (P16562 22-243) with L77G, Y78P
Procedure: as §2

A1BG = target: T4, A1BG (Homo sapiens, UniProt P04217); assay: MST lipid binding to A1BG; conditions: A1BG alone
T4 construct: made in house; host or cells: E. coli BL21
T4 sequence (P04217 22-495): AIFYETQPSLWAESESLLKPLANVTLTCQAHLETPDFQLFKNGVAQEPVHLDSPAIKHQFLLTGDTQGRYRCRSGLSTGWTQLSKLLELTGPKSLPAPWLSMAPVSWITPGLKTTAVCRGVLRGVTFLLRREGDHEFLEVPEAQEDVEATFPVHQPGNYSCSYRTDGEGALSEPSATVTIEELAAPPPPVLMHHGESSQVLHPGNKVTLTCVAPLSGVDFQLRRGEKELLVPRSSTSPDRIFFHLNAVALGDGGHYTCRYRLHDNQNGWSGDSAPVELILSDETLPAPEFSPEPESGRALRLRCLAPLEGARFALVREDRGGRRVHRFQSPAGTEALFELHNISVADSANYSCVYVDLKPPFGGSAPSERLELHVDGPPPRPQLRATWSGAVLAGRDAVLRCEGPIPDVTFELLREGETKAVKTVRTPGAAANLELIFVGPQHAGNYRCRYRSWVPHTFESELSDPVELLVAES
Procedure: as §2

[3] = target: CRISP2 (cysteine-rich secretory protein 2), purified, fluorescently labeled (UniProt P16562); assay: MST; 100 nM RED-tris-NTA-labeled CRISP2 (or L98G Y99P mutant) mixed with a serial dilution of unlabeled A1BG or Ig domain; 20 mM Tris pH 7.5, 30 mM NaCl, 0.05% Triton X-100; Monolith NT.115, 80% laser power; one site specific fit; triplicates

For `CC(C)CCC[C@@H](C)[C@H]1CC[C@H]2[C@@H]3CC=C4C[C@@H](OS(=O)(=O)O)CC[C@]4(C)[C@H]3CC[C@]12C` [cholesterol sulfate], the Kd (CRISP2 [1]; Kd of cholesterol sulfate binding by CRISP2 + EDTA + MgCl2, MST, EDTA 5 mM, MgCl2 10 mM) was 0.07 ± 0.02 µM, the Kd (CRISP2 [1]; Kd of cholesterol sulfate binding by CRISP2, MST, CRISP2 alone) was 3.21 µM and 2.63 µM and the Kd (CRISP2 [1]; Kd of cholesterol sulfate binding by CRISP2 in the presence of Ig4, MST, CRISP2-Ig4) was 2.05 ± 0.76 µM. The “Kd of cholesterol sulfate binding by CRISP2 in the presence of A1BG” value (CRISP2 [1]; MST, equimolar concentration of A1BG) was “blocked”, the Kd (CRISP2 [2]) was 4 ± 1.98 µM and the “Kd of cholesterol sulfate binding by CRISP2 L98G Y99P in the presence of Ig3” value (CRISP2^L98G Y99P) was “inhibited”.

For `CCCCCCCCCCCCCCCC(=O)O` [palmitic acid], the Kd (CRISP2 [1]; Kd of palmitic acid binding by CRISP2, MST, CRISP2 alone) was 64.6 ± 20.7 µM, the Kd (CRISP2 [1]; Kd of palmitic acid binding by CRISP2 in the presence of A1BG, MST, CRISP2+A1BG) was 70 ± 22.7 µM and the “Kd of palmitic acid binding by A1BG” value (A1BG) was “did not bind”.

“Ig1 domain of A1BG, purified (domain or fragment)” showed a Kd [3] of 0.0387 µM.

“Ig3 domain of A1BG, purified (domain or fragment)” was tested, and the Kd [3] was 0.0138 µM.
